In US20120184542A1, “PYRIDO PYRIMIDINES” (priority 2011, published 2012):
Counter-ions that a name gives are not always drawn. Like-named read-outs stand apart in the source and are kept apart here.

Assays:
[1] = test system: SW620 human colon cancer cells; experiment: SW620 Cell Viability Assay; type: cell-based; conditions: Homo sapiens, SW-620, 96 h, read-out: Cellular EC50 (μM) SW620
Protocol: Some cells (S—) were allowed to attach for 24 hrs, serum starved for 48 hrs, and then followed with drug treatments Test Compound Solutions were Prepared in Regular Corresponding Media Supplemented with Serum 2. […] Viability Assay: This assay was performed as follows: • Transfer 50 μL of test compound solution per well from the test compound plate onto the cell plate prepared in Step #1. • Mix the plate with treated cells by pipetting up and down three times with 200 μL multi-channel pipette. • Incubate the cells in 5% CO2 incubator @ 37° C. for 4 days. • Run the CellTiter-Glo™ Luminescent Cell Viability Assay.

Human DYRK1B = target: T1, Human DYRK1B (Homo sapiens, UniProt Q9Y463); experiment: DYRK1B Kinase TR-FRET (IMAP-Tb) Assay; type: biochemical; conditions: for IC50: TR-FRET (IMAP-Tb), ATP 70 μM, 37° C. 60 minutes; for inhibition at 10 µM: read-out: % inhibition of DYRK1B at 10 μM test compound concentration
T1 construct: purchased Invitrogen PR8350B (former PV4649)

Human DYRK1A = target: T2, Human DYRK1A (Homo sapiens, UniProt Q13627); experiment: DYRK1A Kinase TR-FRET (IMAP-Tb) Assay; type: biochemical; conditions: for IC50: TR-FRET (IMAP-Tb), ATP 70 μM, 37° C. 60 minutes, read-out: Enzyme IC50 (μM) DYRK1A; for inhibition at 10 µM: read-out: % inhibition of DYRK1A at 10 μM test compound concentration
T2 construct: purchased Invitrogen PV3997
Description: The kinase TR-FRET (IMAP-Tb) assay uses a fluorescence labeled substrate peptide in the kinase reaction. Upon phosphorylation by the kinase, phosphopeptide is produced, which will be detected by the binding solution provided in IMAP TR-FRET binding kit. After the completion of the kinase reaction, the reaction will be stopped by adding the binding solution containing terbium tracer. This tracer is immobilized on the surface of the IMAP beads, which also contain metal ions on the beads that bind to the phospho-groups of the products. Thus the phosphorylated product of the reaction can enter into close proximity to the tracer, producing resonance energy transfer. Due to the long lifetime of terbium (Tb) fluorescence the detection can be run in time resolved mode, which virtually eliminates fluorescence interference from assay components or compounds.
The TR-FRET signal measurement from this assay, given as an IC50 measurement, is a measure of a test compound's ability to interfere with the phosphorylation of the peptide substrate, that is it inhibits the phosphorylation of the substrate peptide by DYRK1A, and is thus a measure of the test compound's ability to inhibit the activity of DYRK1A.
• 1. Human DYRK1A: from Invitrogen. Part #PV3997 • 2. Substrate Peptide: […] • 3. IMAP TR-FRET IPP Explorer Kit: from Molecular Devices. Part #R8157 • 4. Kinase Assay Buffer (KAB): 10 mM HEPES pH 7.0, 50 mM NaCl, 5 mM MgCl2, 1 mM DTT, 1 mM NaVO4, 200 μg/mL BSA (0.02%) • 5. Assay Plate: Remp polypropylene clear 384-well microplate. […] Detection Plate: Costa black 384-well microplate.
• 1. Transfer 1.5 μL of 20× compound solution to each well of an assay plate. • 2. Add to each well 22.5 μL of KAB Buffer. • 3. Add to each well 3 μL of the solution of DYRK1A and ATP. […] Add to each well 3 μL of the substrate peptide. The assay concentration is 1.0 μM • 5. Incubate the assay plates at 37° C. for 60 minutes. • 6. Add 18 μL of Detection Solution (1:800 diluted Progress bead stock, 1:400 diluted Tb stock, 80% Buffer A, and 20% Buffer B) into each well of detection plates. • 7. Transfer 6 μL of assay solution from the assay plate to the detection plate. • 8. Shake detection plates for 30 minutes. • 9. Read plates in Envision with wavelength set at excitation 340 nm for Tb, emission 490 nm, and […].

[2] = read-out: Enzyme IC50 (μM) DYRK1B

T1 sequence (Q9Y463 whole entry): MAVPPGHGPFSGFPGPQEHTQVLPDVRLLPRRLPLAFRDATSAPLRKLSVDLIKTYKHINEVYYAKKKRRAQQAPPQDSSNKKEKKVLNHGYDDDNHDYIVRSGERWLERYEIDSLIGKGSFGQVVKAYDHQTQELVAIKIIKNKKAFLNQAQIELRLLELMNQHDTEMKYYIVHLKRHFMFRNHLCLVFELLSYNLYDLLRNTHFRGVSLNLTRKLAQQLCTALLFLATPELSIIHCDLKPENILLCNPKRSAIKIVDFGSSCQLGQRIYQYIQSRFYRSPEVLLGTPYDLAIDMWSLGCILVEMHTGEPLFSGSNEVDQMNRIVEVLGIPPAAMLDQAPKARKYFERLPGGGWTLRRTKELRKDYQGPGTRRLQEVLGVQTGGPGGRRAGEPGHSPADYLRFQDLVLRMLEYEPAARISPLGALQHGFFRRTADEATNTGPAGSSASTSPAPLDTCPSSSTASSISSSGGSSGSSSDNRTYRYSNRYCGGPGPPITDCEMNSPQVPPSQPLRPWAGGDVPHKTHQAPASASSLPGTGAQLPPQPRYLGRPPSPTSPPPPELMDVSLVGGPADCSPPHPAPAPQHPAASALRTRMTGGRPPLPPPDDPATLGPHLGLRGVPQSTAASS

Row | SMILES | IC50 (Human DYRK1B; [2]) | IC50 (Human DYRK1A) | further results
1 | CN1CCN(CCCNc2ncc3cc(C(=O)Nc4cc(C(=O)NC(CCN)c5ccccc5)ccc4Cl)c(=O)[nH]c3n2)CC1 (stereo not shown) [Example 121, N-(5-(3-Amino-1-phenylpropylcarbamoyl)-2-chlorophenyl)-2-(3-(4-methylpiperazin-1-yl)propylamino)-7-oxo-7,8-dihydropyrido[2,3-d]pyrimidine-6-carboxamide hydrochloride] |  |  | EC50 [1]: 0.157 µM; IC50 (Human DYRK1B; Enzyme IC50 (μM) DYRK1B): 0.0137 µM
2 | NCCC(NC(=O)c1ccc(Cl)c(NC(=O)c2cc3cnc(N4CCC(N)CC4)nc3[nH]c2=O)c1)c1ccccc1 (stereo not shown) [Example 137, N-(5-(3-Amino-1-phenylpropylcarbamoyl)-2-chlorophenyl)-2-(4-aminopiperidin-1-yl)-7-oxo-7,8-dihydropyrido[2,3-d]pyrimidine-6-carboxamide hydrochloride] |  |  | EC50 [1]: 0.659 µM; IC50 (Human DYRK1B; Enzyme IC50 (μM) DYRK1B): 0.0258 µM
3 | COc1ncc2cc(C(=O)Nc3cc(C(=O)NCc4ccsc4)ccc3Cl)c(=O)[nH]c2n1 [Example 58, 2-Methoxy-7-oxo-7,8-dihydro-pyrido[2,3-d]pyrimidine-6-carboxylic acid {2-chloro-5-[(thiophen-3-ylmethyl)-carbamoyl]-phenyl}-amide] |  |  | EC50 [1]: 1.73 µM; IC50 (Human DYRK1B; Enzyme IC50 (μM) DYRK1B): 0.04 µM
4 | COc1ncc2cc(C(=O)Nc3cc(C(=O)NC(CCN)C4CCCC4)ccc3Cl)c(=O)[nH]c2n1 (stereo not shown) [Example 198, 2-Methoxy-7-oxo-7,8-dihydro-pyrido[2,3-d]pyrimidine-6-carboxylic acid [5-(3-amino-1-cyclopentyl-propylcarbamoyl)-2-chloro-phenyl]-amide] | 0.36 µM | 0.47 µM | 
5 | COc1ncc2cc(C(=O)Nc3cc(C(=O)N(C)C)ccc3Cl)c(=O)[nH]c2n1 [Example 55, 2-Methoxy-7-oxo-7,8-dihydro-pyrido[2,3-d]pyrimidine-6-carboxylic acid (2-chloro-5-dimethylcarbamoyl-phenyl)-amide] | 1.37 µM | 4.1 µM | 
6 | CN1CCN(c2ncc3cc(C(=O)Nc4cc(C(=O)NCc5cccc(F)c5)ccc4Cl)c(=O)[nH]c3n2)CC1 [Example 177, 2-(4-Methyl-piperazin-1-yl)-7-oxo-7,8-dihydro-pyrido[2,3-d]pyrimidine-6-carboxylic acid [2-chloro-5-(3-fluoro-benzylcarbamoyl)-phenyl]amide] | 0.176 µM | 0.0715 µM | 
7 | C[C@H](NC(=O)c1ccc(Cl)c(NC(=O)c2cc3cnc(N4CCN(C)CC4)nc3[nH]c2=O)c1)c1ccccc1 [Example 173, 2-(4-Methyl-piperazin-1-yl)-7-oxo-7,8-dihydro-pyrido[2,3-d]pyrimidine-6-carboxylic acid [2-chloro-5-((S)-1-phenyl-ethylcarbamoyl)-phenyl]-amide] | > 10 µM | > 10 µM | 
8 | COc1ncc2cc(C(=O)Nc3cc(C(=O)OCc4ccccc4Cl)ccc3Cl)c(=O)[nH]c2n1 [Example 52, 4-Chloro-3-[(2-methoxy-7-oxo-7,8-dihydro-pyrido[2,3-d]pyrimidine-6-carbonyl)-amino]-benzoic acid 2-chloro-benzyl ester] | 5.25 µM | 1.19 µM | 
9 | COc1ncc2cc(C(=O)Nc3cc(C(=O)NC(CN)C4CCCC4)ccc3Cl)c(=O)[nH]c2n1 (stereo not shown) [Example 200, 2-Methoxy-7-oxo-7,8-dihydro-pyrido[2,3-d]pyrimidine-6-carboxylic acid [5-(2-amino-1-cyclopentyl-ethylcarbamoyl)-2-chloro-phenyl]-amide] | 0.47 µM | 0.54 µM | 
10 | CC(NC(=O)c1ccc(Cl)c(NC(=O)c2cc3cnc(N4CCOCC4)nc3[nH]c2=O)c1)c1cccc(Cl)c1 (racemic) [Example 143, 2-Morpholin-4-yl-7-oxo-7,8-dihydro-pyrido[2,3-d]pyrimidine-6-carboxylic acid {2-chloro-5-[1-(3-chloro-phenyl)-ethylcarbamoyl]-phenyl}-amide] |  |  | inhibition at 10 µM (Human DYRK1B): 24%; inhibition at 10 µM (Human DYRK1A): 57%
11 | COc1ncc2cc(C(=O)Nc3cc(C(=O)NCc4cccc(C(F)(F)F)c4)ccc3Cl)c(=O)[nH]c2n1 [Example 59, 2-Methoxy-7-oxo-7,8-dihydro-pyrido[2,3-d]pyrimidine-6-carboxylic acid [2-chloro-5-(3-trifluoromethyl-benzylcarbamoyl)-phenyl]-amide] | 0.222 µM | 0.0723 µM | 
12 | CC(C)(C)CNC(=O)c1ccc(Cl)c(NC(=O)c2cc3cnc(N4CCOCC4)nc3[nH]c2=O)c1 [Example 142, 2-Morpholin-4-yl-7-oxo-7,8-dihydro-pyrido[2,3-d]pyrimidine-6-carboxylic acid [2-chloro-5-(2,2-dimethyl-propylcarbamoyl)-phenyl]-amide] |  | 2.43 µM | inhibition at 10 µM (Human DYRK1B): 44%
13 | COc1ncc2cc(C(=O)Nc3cc(C(=O)N(C)Cc4cccc(Cl)c4)ccc3C)c(=O)[nH]c2n1 [Example 63, 2-Methoxy-7-oxo-7,8-dihydro-pyrido[2,3-d]pyrimidine-6-carboxylic acid {5-[(3-chloro-benzyl)-methyl-carbamoyl]-2-methyl-phenyl}-amide] |  | 4.58 µM | inhibition at 10 µM (Human DYRK1B): 28%
14 | C[C@@H](NC(=O)c1ccc(Cl)c(NC(=O)c2cc3cnc(N4CCOCC4)nc3[nH]c2=O)c1)c1ccccc1 [Example 156, 2-Morpholin-4-yl-7-oxo-7,8-dihydro-pyrido[2,3-d]pyrimidine-6-carboxylic acid [2-chloro-5-((R)-1-phenyl-ethylcarbamoyl)-phenyl]-amide] | 0.586 µM | 0.189 µM | 
15 | COc1ncc2cc(C(=O)Nc3cc(C(=O)NCc4ccccc4Cl)ccc3Cl)c(=O)[nH]c2n1 [Example 47, 2-Methoxy-7-oxo-7,8-dihydro-pyrido[2,3-d]pyrimidine-6-carboxylic acid [2-chloro-5-(2-chloro-benzylcarbamoyl)-phenyl]-amide] | 0.0908 µM | 0.0343 µM | 
16 | COc1ncc2cc(C(=O)Nc3cc(C(=O)O)ccc3Cl)c(=O)[nH]c2n1 [Example 22, 4-Chloro-3-[(2-methoxy-7-oxo-7,8-dihydro-pyrido[2,3-d]pyrimidine-6-carbonyl)-amino]-benzoic acid] | 2.73 µM | 0.601 µM | 
17 | CC(C)(O)CNc1ncc2cc(C(=O)Nc3cc(C(=O)NC(CCO)c4ccccc4)ccc3Cl)c(=O)[nH]c2n1 (stereo not shown) [Example 154, N-(2-Chloro-5-(3-hydroxy-1-phenylpropylcarbamoyl)phenyl)-2-(2-hydroxy-2-methylpropylamino)-7-oxo-7,8-dihydropyrido[2,3-d]pyrimidine-6-carboxamide] | 0.078 µM | 0.075 µM | 
18 | COc1ncc2cc(C(=O)Nc3cc(C(=O)NCc4ccccc4)ccc3C)c(=O)[nH]c2n1 [Example 27, 2-Methoxy-7-oxo-7,8-dihydro-pyrido[2,3-d]pyrimidine-6-carboxylic acid (5-benzylcarbamoyl-2-methyl-phenyl)-amide] | 2 µM | 0.376 µM | 
19 | CC(C)(O)CNc1ncc2cc(C(=O)Nc3cc(C(=O)NC(CO)c4ccccc4)ccc3Cl)c(=O)[nH]c2n1 (stereo not shown) [Example 153, N-(2-Chloro-5-(2-hydroxy-1-phenylethylcarbamoyl)phenyl)-2-(2-hydroxy-2-methylpropylamino)-7-oxo-7,8-dihydropyrido[2,3-d]pyrimidine-6-carboxamide] | 0.185 µM | 0.0931 µM | 
20 | COc1ncc2cc(C(=O)Nc3cc(C(=O)OCc4cccc(Cl)c4)ccc3Cl)c(=O)[nH]c2n1 [Example 53, 4-Chloro-3-[(2-methoxy-7-oxo-7,8-dihydro-pyrido[2,3-d]pyrimidine-6-carbonyl)-amino]-benzoic acid 3-chloro-benzyl ester] | > 10 µM |  | inhibition at 10 µM (Human DYRK1A): 32%
